Literature values, collected in patent US8404715B2, “Methods and compositions using racemic, (R)-, and (S)-fexofenadine in combination with leukotriene inhibitors” (Sunovion Pharmaceuticals Inc., priority 1998, dated 2013).
Read-outs that look alike come from different tables or passages of the source.

How the values were obtained:
[1] = test system: leukotriene (LTH4, LTC4, LTD4, and LTE4) formation; conditions: in vitro
LTB4 formation = conditions: ex vivo, several species
[2] = 373 patients
[3] = test system: leukotriene-dependent smooth muscle contractions; conditions: in vitro, guinea pig airways
[4] = test system: leukotriene-dependent smooth muscle contractions; conditions: in vitro, human airways
[5] = in some patients
[6] = test system: contractile activity of three leukotrienes; conditions: humans
[7] = test system: contractile activity of three leukotrienes; conditions: laboratory animals
LTD4 [8] = conditions: in vivo
[9] = in some patients; remark: listed apart in the source
LTD4 [10] = conditions: in vivo; remark: listed apart in the source
LTD4 (leukotriene D4) = conditions: guinea pigs
[11] = in vivo
[12] = test system: nasal response to allergen challenge

CC(c1cc2ccccc2s1)N(O)C(N)=O (racemic) [zileuton, (±)-1-(1-Benso[b]thien-2-ylethyl)-1-hydroxyurea]
leukotriene (LTH4, LTC4, LTD4, and LTE4) formation [1]: inhibit
LTB4 formation (LTB4 formation): inhibitor
efficacy ([2]; 400 mg): failed to do so
efficacy ([2]; 600 mg four times daily): required to provide efficacy
leukotriene-dependent smooth muscle contractions [3]: inhibits
leukotriene-dependent smooth muscle contractions [4]: inhibits
adverse effects reported [5]: headache, pain, asthenia, dyspepsia, nausea, and myalgia

COc1cc(C(=O)NS(=O)(=O)c2ccccc2C)ccc1Cc1cn(C)c2ccc(NC(=O)OC3CCCC3)cc12 [zafirlukast, 4-(5-cyclopentyloxy-carbonylamino-1-methyl-indol-8-ylmethyl)-3-methoxy-N-o-tolylsulfonylbenzamide]
contractile activity of three leukotrienes in conducting airway smooth muscle [6]: antagonized
contractile activity of three leukotrienes in conducting airway smooth muscle [7]: antagonized
inhaled LTD4-induced influx of eosinophils into animal lungs (LTD4 [8]): inhibited
adverse effects reported [9]: headache, infection, nausea, diarrhea, pain, asthenia, abdominal pain, dizziness, myalgia, fever, vomiting, SGPT elevation, and dyspepsia
intradermal LTD4-induced increases in cutaneous vascular permeability (LTD4 [10]): prevented

CC(C)(C)c1ccc(C(O)CCCN2CCC(C(O)(c3ccccc3)c3ccccc3)CC2)cc1 (stereo not shown) [Terfenadine]
increase in airway resistance caused by LTD4 (LTD4 (leukotriene D4)): suppressed
absorption [11]: well absorbed
metabolism [11]: extensively metabolized
early nasal response to allergen challenge ([12]; in vivo): partially inhibits
influx of eosinophils into nasal secretions ([12]; in vivo): without affecting
subsequent reactivity to a challenge with methacholine ([12]; in vivo): partially inhibits
levels of tryptase, prostaglandin D2 and leukotriene C4 ([12]; relative to the placebo, differences did not achieve statistical significance): tended to decrease
